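Briefly, cells in 96-well plates were exposed to five compound concentrations for 48 h, and endpoints were estimated by linear interpolation. TGI: total growth inhibition.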
Key:
Experiment in all cases: growth of human tumour cells (NCI), 48 h
[1] = tested on: OVCAR-8 ovarian
[2] = tested on: SR leukemia
[3] = tested on: RPMI-8226 leukemia
[4] = tested on: HL-60(TB) leukemia
[5] = tested on: XF 498 CNS
[6] = tested on: HT29 colon
[7] = tested on: SNB-78 CNS
[8] = tested on: CCRF-CEM leukemia
[9] = tested on: HCC-2998 colon
[10] = tested on: SK-MEL-5 melanoma
[11] = tested on: M19-MEL melanoma
[12] = tested on: LOX IMVI melanoma
[13] = tested on: OVCAR-4 ovarian
[14] = tested on: SF-268 CNS
[15] = tested on: SF-539 CNS
[16] = tested on: HOP-92 NSCLC
[17] = tested on: DMS 114 small cell lung
[18] = tested on: A549 NSCLC
[19] = tested on: UACC-257 melanoma
[20] = tested on: SK-OV-3 ovarian
[21] = tested on: SK-MEL-28 melanoma
[22] = tested on: NCI-H460 lung
[23] = tested on: HCT-15 colon
[24] = tested on: 786-0 renal
[25] = tested on: UACC-62 melanoma
[26] = tested on: DMS 273 small cell lung
[27] = tested on: HCT-116 colon
[28] = tested on: NCI-H226 lung
[29] = tested on: UO-31 renal
[30] = tested on: U251 CNS
[31] = tested on: OVCAR-5 ovarian
[32] = tested on: KM12 colon
[33] = tested on: SF-295 CNS
[34] = tested on: OVCAR-3 ovarian
[35] = tested on: NCI-H522 lung
[36] = tested on: CAKI-1 renal
[37] = tested on: RXF 393 renal
[38] = tested on: LXFL 529 NSCLC
[39] = tested on: SN12C renal
[40] = tested on: HOP-18 NSCLC
[41] = tested on: SK-MEL-2 melanoma
[42] = tested on: SW-620 colon
[43] = tested on: COLO 205 colon
[44] = tested on: SNB-75 CNS
[45] = tested on: M14 melanoma
[46] = tested on: MALME-3M melanoma
[47] = tested on: ACHN renal
[48] = tested on: KM20L2 colon
[49] = tested on: EKVX NSCLC
[50] = tested on: K-562 leukemia
[51] = tested on: DLD-1 colon
[52] = tested on: NCI-H23 lung
[53] = tested on: HOP-62 NSCLC
[54] = tested on: IGROV1 ovarian
[55] = tested on: SNB-19 CNS
[56] = tested on: MOLT-4 leukemia
[57] = tested on: TK-10 renal

Measured: TGI

CN(CCO)c1nc2c(c(=O)[nH]1)CCC2
> 100 µM: all assays above

Source: PubChem BioAssay (NCI)
